Measured values: US8927570B2, “1-naphthyl-or 1-dihydroacenaphthenyl-pyrido[B]indoles and uses thereof in treating cancers” (priority 2009, dated 2015)

Experiments:
[1] = system: HCT116, MCF-7, A549, LNCaP, DU145 and PC-3 cancer cells; assay: Flow cytometry, cell cycle kinetics of cancer cells; assay type: cell-based, human; details: 15 mM in 0.1% DMSO
Procedure: (§1) Flow cytometry experiments were performed to show the effects of Compound 19, and anticancer drugs Adriamycin or Camptothecin treatment on the cell cycle kinetics of various human cells (FIGS. 8A-8I and 9A-9I), MCF-7 breast cancer cells (FIGS. 5A-5F), A549 lung cancer cells (FIGS. 7A-7I), LNCaP (FIGS. 10A-10I), DU145 (FIGS. 11A-11I) and PC-3 (FIGS. 12A-12I) prostate cancer cells, as well as cultured normal human fibroblasts (FIGS. 6A-6F). The compound or drugs were applied at a concentration of 15 mM in 0.1% DMSO as the vehicle, and cells incubated for the time point indicated in hours (hr). The control samples were treated with vehicle without compound or drug. Red histograms represent cells in the G1/G0 phase (histogram to the left) and cells in the G2/M phases (histogram to the right). The interval between the G1/G) and G2/M histograms is the S-phase of the cell cycle. The subG1/GO histograms (cyan colored) represent cells undergoing apoptosis (programmed cell death).

[2] = system: cultured normal human fibroblasts; assay: Flow cytometry, cell cycle kinetics of cultured normal human fibroblasts; assay type: cell-based; details: 15 mM in 0.1% DMSO; for selectivity between cancer cells and normal (fibroblast) cells: flow cytometry cell cycle kinetics
Procedure: as §1

[3] = system: MDA-MB-468 breast cancer xenografts; assay: Antitumor activity in nude mice bearing MDA-MB-468 breast cancer xenografts; assay type: in vivo; details: 40 mg/kg i.p., after 18 days
Procedure: FIGS. 2A-2B illustrate antitumor activity on tumor mass (FIG. 2A) and on body weight (FIG. 2B) of compound 19 treatment in nude mice bearing human MDA-MB-468 breast cancer xenografts.
(§2) Nude mice bearing MDA-MB-468 breast cancer (FIGS. 2A-2B) and Panc-1 pancreatic cancer (FIGS. 3A-3B) xenografts were administered 40 mg/kg i.p. of compound 19 and tumor mass and body weights were measured daily for 18 days compared to a PEG-ethanol-saline control.

[4] = system: DU145 prostate cancer xenografts; assay: Antitumor activity in nude mice bearing DU145 prostate cancer xenografts; assay type: in vivo
Procedure: FIGS. 4A-4B illustrate antitumor activity on tumor growth (FIG. 4A) and on body weight (FIG. 4B) of compound 19 treatment in nude mice bearing human DUI145 prostate cancer xenografts.
Nude mice bearing DU145 prostate cancer xenografts were administered i.p. 10 mg/kg, 20 mg/kg or control of compound 19 and tumor growth (FIG. 4A) and body weight (FIG. 4B) was monitored over 25 days. […]

[5] = system: Panc-1 pancreatic cancer xenografts; assay: Antitumor activity in nude mice bearing Panc-1 pancreatic cancer xenografts; assay type: in vivo; details: 40 mg/kg i.p., after 18 days
Procedure: FIGS. 3A-3B illustrate antitumor activity on tumor mass (FIG. 3A) and on body weight (FIG. 3B) of compound 19 treatment in nude mice bearing Panc-1 human pancreatic cancer xenografts.
as §2

[6] = system: HCT116 colon cancer cells; assay: In vitro antiproliferative activity, HCT116 colon cancer cells; assay type: cell-based; details: Homo sapiens, HCT-116, Table 1
Procedure: (§3) Substituted β-carboline compounds 4 to 38 were tested for antiproliferative activity against HCT116 colon cancer cells and HPAC, Mia-PaCa2 and Panc-1 pancreatic cancer cell lines. Table 1 lists the IC50 values for the substituted β-carbolines.

[7] = system: HPAC pancreatic cancer cell line; assay: In vitro antiproliferative activity, HPAC pancreatic cancer cell line; assay type: cell-based; details: Homo sapiens, Table 1
Procedure: as §3
(§4) Substituted β-carbolines and analog compounds 39 to 57 were tested for antiproliferative activity against HPAC, Mia-PaCa2 and Panc-1 pancreatic cancer cell lines and MCF-7 and MDA-MB-468 breast cancer cell lines. Table 2 lists the IC50 values for the substituted β-carbolines and analogs thereof.

[8] = system: Mia-PaCa2 pancreatic cancer cell line; assay: In vitro antiproliferative activity, Mia-PaCa2 pancreatic cancer cell line; assay type: cell-based; details: Homo sapiens, MIA PaCa-2, Table 1
Procedure: as §3, §4

[9] = system: Panc-1 pancreatic cancer cell line; assay: In vitro antiproliferative activity, Panc-1 pancreatic cancer cell line; assay type: cell-based, human; details: Homo sapiens, Table 1
Procedure: as §4

[10] = system: HCT116 P53 −/−; assay: In vitro antiproliferative activity, HCT116 P53 −/− cells; assay type: cell-based; details: Homo sapiens, HCT-116, Table 1
Procedure: as §3

| Compound | cell cycle arrest mechanism in cancer cells [1] | selectivity between cancer cells and normal (fibroblast) cells [2] | IC50 [6] [nM] | IC50 [7] [nM] | IC50 [8] [nM] | IC50 [9] [nM] | IC50 [10] [nM] | also measured |
| --- | --- | --- | --- | --- | --- | --- | --- | --- |
| CC[C@@]1(O)C(=O)OCc2c1cc1n(c2=O)Cc2cc3ccccc3nc2-1 [Camptothecin] | primarily G1 phase arrest | did not show selectivity |  |  |  |  |  |  |
| COc1cccc2c1C(=O)c1c(O)c3c(c(O)c1C2=O)C[C@@](O)(C(=O)CO)C[C@@H]3O[C@H]1C[C@H](N)[C@H](O)[C@H](C)O1 [Adriamycin] | primarily G1 phase arrest | did not show selectivity |  |  |  |  |  |  |
| COc1ccc2[nH]c3c(-c4cccc5ccccc45)nccc3c2c1 [Compound 19, 6-Methoxy-1-naphthalen-1-yl-9H-β-carboline] | G2/M arrest mechanism(s) |  | 130 | 290 | 200 | 290 |  | body weight [3]: nor had body weight decreased; tumor mass ([3]; vs PEG-ethanol-saline control): had not increased; body weight ([4]; 10 mg/kg and 20 mg/kg i.p., over 25 days): remained fairly constant; percent of tumor growth ([4]; 10 mg/kg i.p., at about day 7): less than control; rate of tumor growth ([4]; 10 mg/kg i.p., over the 25 days): about equivalent to that of control; tumor growth ([4]; 20 mg/kg i.p., over 25 days): significant decrease in tumor growth compared to 10 mg/kg and control; body weight [5]: nor had body weight decreased; tumor mass ([5]; vs PEG-ethanol-saline control): had not increased; perturbation of the cell cycle of normal human cells ([2]; normal human fibroblasts): no significant perturbation |
| COc1ccc2[nH]c3c(-c4ccnc5ccccc45)nccc3c2c1 [Compound 11, 6-Methoxy-1-quinolin-4-yl-9H-β-carboline] |  |  | 510 | 560 | 490 | 580 | 460 |  |
| COc1ccc2c(c1)[nH]c1c(-c3ccnc4ccccc34)nccc12 [Compound 10, 7-Methoxy-1-quinolin-4-yl-9H-β-carboline] |  |  | 7000 |  |  |  | 18700 |  |
| COc1ccc2[nH]c3c(-c4ccoc4)nccc3c2c1 [Compound 9, 1-Furan-3-yl-6-methoxy-9H-β-carboline] |  |  | 60900 | 45100 |  |  | 53700 |  |
